This passage reports Emax results from US20260207621A1 (Vividion Therapeutics, Inc., priority 2022, published 2026).

Molecules are shown by their SMILES.

For the assay, the system named is Nrf2. Briefly: Nrf2 antagonism assay: ARE luciferase reporter in KYSE-70 cells. The class given is cell-based. The note with it: Homo sapiens, KYSE-70, KYSE-70 cells, positive Imax corresponds to Nrf2 antagonism, read-out: KYSE70 Cellular ARE Luciferase Imax (%). From the text: NRF2 binds to a promoter region, antioxidant response element (ARE), to initiate expression of multiple genes. ARE luciferase reporter assays are used to test whether a ligand can activate or repress the expression of target genes using luciferase as a reporter gene.
KYSE-70 is an esophageal squamous cell carcinoma cell line with a Nrf2 mutation at amino acid position W24C. This mutation lowers the affinity between the E3 ligase that includes KEAP1 and Nrf2, resulting in a state in which the synthesis rate of new Nrf2 is faster than the E3's degradation rate of Nrf2, resulting in a “Nrf2 high” state. In KYSE-70 cells, genes are inserted directly after the ARE that trigger the expression of luciferase. Without a NRF2 antagonist in this modified KYSE70 cell line which has an inherently “NRF2 high state”, luciferase is expressed, and a signal is observed.
Nrf2 antagonists bind at C151 of KEAP1 and stabilize the E3 which results in an increased degradation rate of Nrf2. Increased degradation of Nrf2 results in less expression of luciferase, and therefore a less intense signal.
An IC50 is generated from the dose-response curve and an Imax. A positive Imax corresponds to Nrf2 antagonism. Imax >90% correlates with in vivo tumor grown inhibition. Compounds with Imax >50% were included in this description.
On the technique in general: A reporter such as luciferase makes a cellular process visible.

Turning to `C=CC(=O)N1CCOCCC1c1cc(Cl)cc(-c2ncnc(N)n2)c1` (racemic) [Compound 152, 1-(5-(3-(4-amino-1,3,5-triazin-2-yl)-5-chlorophenyl)-1,4-oxazepan-4-yl)prop-2-en-1-one], the Emax stood at 78%.

Regarding `C=CC(=O)N1[C@H](C)COC[C@H]1c1cc(Cl)cc(-c2ncccn2)c1` (single isomer, unassigned) [Compound 20], the Emax worked out at 67%.

With `C=CC(=O)N1CCN(S(C)(=O)=O)C[C@H]1c1cc(Cl)cc(-c2nnn(C)n2)c1` (single isomer, unassigned) [Compound 21], the Emax amounted to 54%.

As to `C=CC(=O)N1CCN(C(C)=O)C[C@H]1c1cc(Cl)cc(-c2nnn(C)n2)c1` (single isomer, unassigned) [Compound 22], the Emax turned out to be 64%.

Consider `C=CC(=O)N1CCOCC1c1cc(Cl)nc(-c2nnn(C)n2)c1` (single isomer, unassigned) [Compound 23, 1-(3-(2-chloro-6-(2-methyl-2H-tetrazol-5-yl)pyridin-4-yl)morpholino)prop-2-en-1-one], for which the Emax came out at 55%.

Turning to `C=CC(=O)N1[C@H](C)COC[C@H]1c1cc(Cl)cc(-c2ccn(C)c(=O)c2)c1` (single isomer, unassigned) [Compound 24], the Emax turned out to be 73%.

For `C=CC(=O)N1CCOCC1c1cc(Cl)nc(-c2ccn(C)c(=O)c2)c1` (single isomer, unassigned) [Compound 25, 4-(4-acryloylmorpholin-3-yl)-6-chloro-1′-methyl-[2,4′-bipyridin]-2′(1′H)-one], the Emax was 86%.

For `C=CC(=O)N1CCOCC1c1cc(Cl)nc(-c2ccnnc2)c1` (single isomer, unassigned) [Compound 30, 1-(3-(2-chloro-6-(pyridazin-4-yl)pyridin-4-yl)morpholino)prop-2-en-1-one], the Emax amounted to 72%.

As to `C=CC(=O)N1CCOC[C@H]1c1cc(Cl)cc(-c2ncnc(N)n2)c1` (single isomer, unassigned) [Compound 55], the Emax came out at 93%.

Turning to `C=CC(=O)N1CCOCC1c1cc(Cl)cc(-c2cnnc(OC)c2)c1` (single isomer, unassigned) [Compound 56, 1-(3-(3-chloro-5-(6-methoxypyridazin-4-yl)phenyl)morpholino)prop-2-en-1-one], the Emax is 74%.

Turning to `C=CC(=O)N1CCOCC1c1cc(Cl)cc(-c2ccn3cc(C)nc3c2)c1` (single isomer, unassigned) [Compound 57, 1-(3-(3-chloro-5-(2-methylimidazo[1,2-a]pyridin-7-yl)phenyl)morpholino)prop-2-en-1-one], the Emax was 84%.

For `C=CC(=O)N1CCOCC1c1cc(Cl)cc(-c2cncc(C)n2)c1` (single isomer, unassigned) [Compound 59, 1-(3-(3-chloro-5-(6-methylpyrazin-2-yl)phenyl)morpholino)prop-2-en-1-one], the Emax is 81%.

Turning to `C=CC(=O)N1CCOCC1c1cc(Cl)cc(-c2ccnc(C(N)=O)c2)c1` (single isomer, unassigned) [Compound 75, 4-(3-(4-acryloylmorpholin-3-y1)-5-chlorophenyl)picolinamide], the Emax amounted to 92%.

Take `C=CC(=O)N1CC(C)(C)OCC1c1cc(Cl)nc(-c2ccnc(N)n2)c1` (single isomer, unassigned) [Compound 99, 1-(5-(2-(2-aminopyrimidin-4-yl)-6-chloropyridin-4-y1)-2,2-dimethylmorpholino)prop-2-en-1-one]: the Emax was found to be 82%.

Turning to `C=CC(=O)N1[C@H](C)COC[C@H]1c1cc(Cl)cc(-c2ccc(F)c(C(N)=O)c2)c1` (single isomer, unassigned) [Compound 108], the Emax worked out at 70%.

For the molecule `C=CC(=O)N1[C@H](C)COC[C@H]1c1cc(Cl)cc(-c2ccnc(C)n2)c1` (single isomer, unassigned) [Compound 109], the Emax came out at 91%.

Turning to `C=CC(=O)N1[C@H](C)COC[C@H]1c1cc(Cl)cc(-c2ccnc(N)n2)c1` (single isomer, unassigned) [Compound 110], the Emax turned out to be 93%.

With `C=CC(=O)N1CCOCC1c1cc(Cl)cc(-c2nccc3[nH]ccc23)c1` (single isomer, unassigned) [Compound 111, 1-(3-(3-chloro-5-(1H-pyrrolo[3,2-c]pyridin-4-yl)phenyl)morpholino)prop-2-en-1-one], the Emax was 90%.

Turning to `C=CC(=O)N1CCOCC1(C)c1cc(Cl)cc(-c2ncnc(N)n2)c1` (single isomer, unassigned) [Compound 112, 1-(3-(3-(4-amino-1,3,5-triazin-2-yl)-5-chlorophenyl)-3-methylmorpholino)prop-2-en-1-one], the Emax is 95%.

Take `C=CC(=O)N1CCOCC1(C)c1cc(Cl)cc(-c2ccnc(N)n2)c1` (single isomer, unassigned) [Compound 113, 1-(3-(3-(2-aminopyrimidin-4-yl)-5-chlorophenyl)-3-methylmorpholino)prop-2-en-1-one]: the Emax worked out at 94%.

Regarding `C=CC(=O)N1CCOCC1(C)c1cc(Cl)cc(-c2ccc(F)c(C(N)=O)c2)c1` (single isomer, unassigned) [Compound 114, 3′-(4-acryloyl-3-methylmorpholin-3-yl)-5′-chloro-4-fluoro-[1,1′-biphenyl]-3-carboxamide], the Emax was found to be 87%.

On to `C=CC(=O)N1CCOC[C@H]1c1cc(Cl)cc(-c2cnn(C3CC3)c2)c1` (single isomer, unassigned) [Compound 115], for which the Emax worked out at 74%.

In the case of `C=CC(=O)N1CCOC[C@H]1c1cc(Cl)cc(-c2cnn(C)c2)c1` (single isomer, unassigned) [Compound 116], the Emax was 84%.

As for `C=CC(=O)N1CCOC[C@H]1c1cc(Cl)cc(-c2cn[nH]c2)c1` (single isomer, unassigned) [Compound 117], the Emax worked out at 84%.

As for `C=CC(=O)N1CCOC[C@H]1c1cc(Cl)cc(-n2cc(C)cn2)c1` (single isomer, unassigned) [Compound 118], the Emax was 63%.

For the molecule `C=CC(=O)N1CCOCC1c1cc(Cl)nc(-c2cc(N)ncn2)c1` (single isomer, unassigned) [Compound 119, 1-(3-(2-(6-aminopyrimidin-4-yl)-6-chloropyridin-4-yl)morpholino)prop-2-en-1-one], the Emax worked out at 96%.

`C=CC(=O)N1CC2(CC2)OCC1c1cc(Cl)cc(-c2cc(N)ncn2)c1` (single isomer, unassigned) [Compound 140, 1-(6-(3-(6-aminopyrimidin-4-yl)-5-chlorophenyl)-4-oxa-7-azaspiro[2.5]octan-7-yl)prop-2-en-1-one]: the Emax came to 72%.

For the molecule `C=CC(=O)N1CCOC[C@H]1c1cc(Cl)cc(-c2cnnc(N)c2)c1` (single isomer, unassigned) [Compound 141], the Emax amounted to 89%.

On to `C=CC(=O)N1[C@H](C)COC[C@H]1c1cc(Cl)nc(-c2ccnc(C)n2)c1` (single isomer, unassigned) [Compound 142], for which the Emax is 81%.

For `C=CC(=O)N1CCOCC1c1cc(Cl)nc(-c2ncnc(N)n2)c1` (single isomer, unassigned) [Compound 146, 1-(3-(2-(4-amino-1,3,5-triazin-2-yl)-6-chloropyridin-4-yl)morpholino)prop-2-en-1-one], the Emax came to 71%.

Take `C=CC(=O)N1CCOCC12COc1c(-c3ncnc(N)n3)cc(Cl)cc12` (single isomer, unassigned) [Compound 151, 1-(7-(4-amino-1,3,5-triazin-2-yl)-5-chloro-2H-spiro[benzofuran-33′-morpholino]-4′-yl)prop-2-en-1-one]: the Emax stood at 81%.

Regarding `C=CC(=O)N1CC2(CC2)OCC1c1cc(Cl)cc(-c2ncnc(N)n2)c1` (single isomer, unassigned) [Compound 153, 1-(6-(3-(4-amino-1,3,5-triazin-2-y1)-5-chlorophenyl)-4-oxa-7-azaspiro[2.5]octan-7-yl)prop-2-en-1-one], the Emax was 94%.

In the case of `C=CC(=O)N1CC2(CC2)OCC1(C)c1cc(Cl)cc(-c2ncnc(N)n2)c1` (single isomer, unassigned) [Compound 160, 1-(6-(3-(4-amino-1,3,5-triazin-2-yl)-5-chlorophenyl)-6-methyl-4-oxa-7-azaspiro[2.5]octan-7-yl)prop-2-en-1-one], the Emax turned out to be 91%.

Regarding `C=CC(=O)N1[C@H](C(N)=O)COC[C@H]1c1cc(Cl)nc(-c2ccc(F)c(C(N)=O)c2)c1` (single isomer, unassigned) [Compound 181], the Emax was 66%.

With `C=CC(=O)N1CCOC[C@H]1c1cc(Cl)cc(-c2c[nH]c(=O)[nH]2)c1` (single isomer, unassigned) [Compound 184], the Emax came to 72%.

Consider `C=CC(=O)N1CCN(C(=O)C2CC2)C[C@H]1c1cc(Cl)cc(-c2ccnc(N)n2)c1` (single isomer, unassigned) [Compound 185], for which the Emax came out at 94%.

Regarding `C=CC(=O)N1CCN(C(=O)CC#N)C[C@H]1c1cc(Cl)cc(-c2ccnc(N)n2)c1` (single isomer, unassigned) [Compound 186], the Emax came to 83%.

On to `C=CC(=O)N1CCN(C(=O)CC#N)C[C@H]1c1cc(Cl)cc(-c2ccnc(NC(=O)CC#N)n2)c1` (single isomer, unassigned) [Compound 189], for which the Emax stood at 79%.

As to `C=CC(=O)N1[C@H](c2cc(Cl)nc(-c3ccn4ccnc4c3)c2)COC[C@H]1C(F)F` (single isomer, unassigned) [Compound 194], the Emax worked out at 84%.
